As usually defined, the IC50 is the concentration at which inhibition is half-maximal.

These results are taken from patent US11104676B2 (priority 2018, dated 2021).

The assay deals with GST-tagged recombinant human TYRO3 kinase domain (Homo sapiens (Human), UniProt Q06418). As to conditions: read-out: TYRO3 enzyme IC50.
Sequence of GST-tagged recombinant human TYRO3 kinase domain (Q06418 518-790): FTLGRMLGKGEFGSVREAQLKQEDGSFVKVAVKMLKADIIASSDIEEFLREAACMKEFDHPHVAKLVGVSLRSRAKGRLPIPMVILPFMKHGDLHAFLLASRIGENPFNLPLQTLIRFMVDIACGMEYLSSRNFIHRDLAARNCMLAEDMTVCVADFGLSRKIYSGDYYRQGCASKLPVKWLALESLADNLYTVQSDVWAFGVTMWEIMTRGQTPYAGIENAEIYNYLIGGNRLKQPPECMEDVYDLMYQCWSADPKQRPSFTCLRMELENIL
In the case of `COC[C@@H]1CCC[C@@H]1Nc1n[nH]c2nccc(Oc3ccc(NC(=O)c4ccnn(-c5ccc(F)cc5)c4=O)cc3F)c12` (relative stereo) [Example 28, N-(3-fluoro-4-((3-((cis-2-(methoxymethyl)cyclopentyl)amino)-1H-pyrazolo[3,4-b]pyridin-4-yl)oxy)phenyl)-2-(4-fluorophenyl)-3-oxo-2,3-dihydropyridazine-4-carboxamide], the IC50 amounted to 375 nM.
The same measure for `O=C(Nc1ccc(Oc2ccnc3[nH]nc(NC4CC(F)(F)C4)c23)c(F)c1)c1ccnn(-c2ccc(F)cc2)c1=O` [Example 12, N-(4-((3-((3,3-difluorocyclobutyl)amino)-1H-pyrazolo[3,4-b]pyridin-4-yl)oxy)-3-fluorophenyl)-2-(4-fluorophenyl)-3-oxo-2,3-dihydropyridazine-4-carboxamide]: 295 nM; for `COCC(C)(C)Nc1n[nH]c2nccc(Oc3ccc(NC(=O)c4ccnn(-c5ccc(F)cc5)c4=O)cc3F)c12` [Example 18, N-(3-fluoro-4-((3-((1-methoxy-2-methylpropan-2-yl)amino)-1H-pyrazolo[3,4-b]pyridin-4-yl)oxy)phenyl)-2-(4-fluorophenyl)-3-oxo-2,3-dihydropyridazine-4-carboxamide]: 131 nM; for `COCC1(Nc2n[nH]c3nccc(Oc4ccc(NC(=O)c5ccnn(-c6ccc(F)cc6)c5=O)cc4F)c23)CCCC1` [Example 20, N-(3-fluoro-4-((3-((1-(methoxymethyl)cyclopentyl)amino)-1H-pyrazolo[3,4-b]pyridin-4-yl)oxy)phenyl)-2-(4-fluorophenyl)-3-oxo-2,3-dihydropyridazine-4-carboxamide]: 536 nM.
`COCC1(Nc2n[nH]c3nccc(Oc4ccc(NC(=O)c5ccnn(-c6ccc(F)cc6)c5=O)cc4F)c23)CCC1` [Example 21, N-(3-fluoro-4-((3-((1-(methoxymethyl)cyclobutyl)amino)-1H-pyrazolo[3,4-b]pyridin-4-yl)oxy)phenyl)-2-(4-fluorophenyl)-3-oxo-2,3-dihydropyridazine-4-carboxamide]: the IC50 stood at 188 nM.
Under `COCCC(C)(C)Nc1n[nH]c2nccc(Oc3ccc(NC(=O)c4ccnn(-c5ccc(F)cc5)c4=O)cc3F)c12` [Example 22, N-(3-fluoro-4-((3-((4-methoxy-2-methylbutan-2-yl)amino)-1H-pyrazolo[3,4-b]pyridin-4-yl)oxy)phenyl)-2-(4-fluorophenyl)-3-oxo-2,3-dihydropyridazine-4-carboxamide] stands 318 nM.
`O=C(Nc1ccc(Oc2ccnc3[nH]nc(NCC4CCS(=O)(=O)C4)c23)c(F)c1)c1ccnn(-c2ccc(F)cc2)c1=O` (stereo not drawn) [Example 24, N-(4-((3-(((1,1-dioxidotetrahydrothiophen-3-yl)methyl)amino)-1H-pyrazolo[3,4-b]pyridin-4-yl)oxy)-3-fluorophenyl)-2-(4-fluorophenyl)-3-oxo-2,3-dihydropyridazine-4-carboxamide]: the IC50 amounted to 120 nM.
For `COCC(C)(C)Nc1n[nH]c2nccc(Oc3ccc(NC(=O)c4ccnn(-c5ccc(F)cc5)c4=O)nc3)c12` [Example 71, 2-(4-fluorophenyl)-N-(5-((3-((1-methoxy-2-methylpropan-2-yl)amino)-1H-pyrazolo[3,4-b]pyridin-4-yl)oxy)pyridin-2-yl)-3-oxo-2,3-dihydropyridazine-4-carboxamide], the IC50 stood at 192 nM.
Regarding `Cc1c(C(=O)Nc2ccc(Oc3ccnc4[nH]nc(N[C@H](C)CO)c34)c(F)c2)c(=O)n(-c2ccccc2)n1C` [Example 86, (R)-N-(3-fluoro-4-((3-((1-hydroxypropan-2-yl)amino)-1H-pyrazolo[3,4-b]pyridin-4-yl)oxy)phenyl)-1,5-dimethyl-3-oxo-2-phenyl-2,3-dihydro-1H-pyrazole-4-carboxamide], the IC50 came to 104 nM.
The same measure for `C[C@H](CO)Nc1n[nH]c2nccc(Oc3ccc(NC(=O)c4cn(C)n(-c5ccccc5)c4=O)cc3F)c12` [Example 87, (R)-N-(3-fluoro-4-((3-((1-hydroxypropan-2-yl)amino)-1H-pyrazolo[3,4-b]pyridin-4-yl)oxy)phenyl)-1-methyl-3-oxo-2-phenyl-2,3-dihydro-1H-pyrazole-4-carboxamide]: 432 nM; for `C[C@H](CO)Nc1n[nH]c2nccc(Oc3ccc(NC(=O)c4cn(C)n(-c5ccc(F)cc5)c4=O)cc3F)c12` [Example 88, (R)-N-(3-fluoro-4-((3-((1-hydroxypropan-2-yl)amino)-1H-pyrazolo[3,4-b]pyridin-4-yl)oxy)phenyl)-2-(4-fluorophenyl)-1-methyl-3-oxo-2,3-dihydro-1H-pyrazole-4-carboxamide]: 364 nM.
For `CC(C)n1cc(C(=O)Nc2ccc(Oc3ccnc4[nH]nc(N[C@H](C)CO)c34)c(F)c2)c(=O)n(-c2cnn(C)c2)c1=O` [Example 93, (R)-N-(3-fluoro-4-((3-((1-hydroxypropan-2-yl)amino)-1H-pyrazoo[3,4-b]pyridin-4-yl)oxy)phenyl)-1-isopropyl-3-(1-methyl-1H-pyrazol-4-yl)-2,4-dioxo-1,2,3,4-tetrahydropyrimidine-5-carboxamide], the IC50 worked out at 767 nM.
In the case of `CC(C)n1cc(C(=O)Nc2ccc(Oc3ccnc4[nH]nc(N[C@H](C)CO)c34)c(F)c2)c(=O)n(C(C)C)c1=O` [Example 95, (R)-N-(3-fluoro-4-((3-((1-hydroxypropan-2-yl)amino)-1H-pyrazolo[3,4-b]pyridin-4-yl)oxy)phenyl)-1,3-diisopropyl-2,4-dioxo-1,2,3,4-tetrahydropyrimidine-5-carboxamide], the IC50 was found to be 875 nM.
On to `CC(C)n1cc(C(=O)Nc2ccc(Oc3ccnc4[nH]nc(N[C@H](C)CO)c34)c(F)c2)c(=O)n(C2CCOCC2)c1=O` [Example 99, (R)-N-(3-fluoro-4-((3-((1-hydroxypropan-2-yl)amino)-1H-pyrazolo[3,4-b]pyridin-4-yl)oxy)phenyl)-1-isopropyl-2,4-dioxo-3-(tetrahydro-2H-pyran-4-yl)-1,2,3,4-tetrahydropyrimidine-5-carboxamide], for which the IC50 worked out at 546 nM.
The same measure for `C[C@H](CO)Nc1n[nH]c2nccc(Oc3ccc(NC(=O)C4CCCN(c5ccc(F)cc5)C4=O)cc3F)c12` (stereo partly drawn) [Example 101, N-(3-fluoro-4-((3-(((R)-1-hydroxypropan-2-yl)amino)-1H-pyrazolo[3,4-b]pyridin-4-yl)oxy)phenyl)-1-(4-fluorophenyl)-2-oxopiperidine-3-carboxamide]: 198 nM; for `C[C@H](CO)Nc1n[nH]c2nccc(Oc3ccc(NC(=O)c4cc5c(n(-c6ccc(F)cn6)c4=O)CCCC5=O)cc3F)c12` [Example 111, (R)-N-(3-fluoro-4-((3-((1-hydroxypropan-2-yl)amino)-1H-pyrazolo[3,4-b]pyridin-4-yl)oxy)phenyl)-1-(5-fluoropyridin-2-yl)-2,5-dioxo-1,2,5,6,7,8-hexahydroquinoine-3-carboxamide]: 137 nM.
Under `CCn1nc(C(=O)Nc2ccc(Oc3ccnc4[nH]nc(N[C@@H](C)CO)c34)c(F)c2)c(=O)n(-c2ccc(F)c(F)c2)c1=O` [Example 132, (S)-4-(3,4-difluorophenyl)-2-ethyl-N-(3-fluoro-4-((3-((1-hydroxypropan-2-yl)amino)-1H-pyrazolo[3,4-b]pyridin-4-yl)oxy)phenyl)-3,5-dioxo-2,3,4,5-tetrahydro-1,2,4-triazine-6-carboxamide] stands 348 nM; under `CCn1nc(C(=O)Nc2ccc(Oc3ccnc4[nH]nc(N[C@H](C)CO)c34)c(F)c2)c(=O)n(-c2ccc(F)c(F)c2)c1=O` [Example 133, (R)-4-(3,4-difluorophenyl)-2-ethyl-N-(3-fluoro-4-((3-((1-hydroxypropan-2-yl)amino)-1H-pyrazolo[3,4-b]pyridin-4-yl)oxy)phenyl)-3,5-dioxo-2,3,4-5-tetrahydro-1,2,4-triazine-6-carboxamide], 130 nM.
The same measure for `CCn1cc(C(=O)Nc2ccc(Oc3ccnc4[nH]nc(NC(C)(C)COC)c34)c(F)c2)c(=O)n(-c2ccc(F)cc2)c1=O` [Example 157, 1-ethyl-N-(3-fluoro-4-((3-((1-methoxy-2-methylpropan-2-yl)amino)-1H-pyrazolo[3,4-b]pyridin-4-yl)oxy)phenyl)-3-(4-fluorophenyl)-2,4-dioxo-1,2,3,4-tetrahydropyrimidine-5-carboxamide]: 118 nM; for `COCC(C)(C)Nc1n[nH]c2nccc(Oc3ccc(NC(=O)c4cn(C)c(=O)n(-c5ccc(F)cc5)c4=O)cc3F)c12` [Example 158, N-(3-fluoro-4-((3-((1-methoxy-2-methylpropan-2-yl)amino)-1H-pyrazolo[3,4-b]pyridin-4-yl)oxy)phenyl)-3-(4-fluorophenyl)-1-methyl-2,4-dioxo-1,2,3,4-tetrahydropyrimidine-5-carboxamide]: 104 nM.
With `COCC(C)(C)Nc1n[nH]c2nccc(Oc3ccc(NC(=O)c4cn(CCO)c(=O)n(-c5ccc(F)cc5)c4=O)cc3F)c12` [Example 159, N-(3-fluoro-4-((3-((1-methoxy-2-methylpropan-2-yl)amino)-1H-pyrazolo[3,4-b]pyridin-4-yl)oxy)phenyl)-3-(4-fluorophenyl)-1-(2-hydroxyethyl)-2,4-dioxo-1,2,3,4-tetrahydropyrimidine-5-carboxamide], the IC50 was found to be 420 nM.
In the case of `CC(CC(F)F)Nc1n[nH]c2nccc(Oc3ccc(NC(=O)c4cn(C)cc(-c5ccc(F)cc5)c4=O)nc3)c12` (stereo not drawn) [Example 167, N-(5-((3-((4,4-difluorobutan-2-yl)amino)-1H-pyrazolo[3,4-b]pyridin-4-yl)oxy)pyridin-2-yl)-5-(4-fluorophenyl)-1-methyl-4-oxo-1,4-dihydropyridine-3-carboxamide], the IC50 was 224 nM.
`Cc1cc(C(=O)Nc2ccc(Oc3ccnc4[nH]nc(NC(C)CC(F)F)c34)cn2)c(=O)n(-c2ccc(F)cc2)c1` (stereo not drawn) [Example 168, N-(5-((3-((4,4-difluorobutan-2-yl)amino)-1H-pyrazolo[3,4-b]pyridin-4-yl)oxy)pyridin-2-yl)-1-(4-fluorophenyl)-5-methyl-2-oxo-1,2-dihydropyridine-3-carboxamide]: the IC50 is 248 nM.
The same measure for `CCOC[C@H](C)Nc1n[nH]c2nccc(Oc3ccc(NC(=O)c4cc(C)cn(-c5ccc(F)cc5)c4=O)cc3F)c12` [Example 172, (S)-N-(4-((3-((1-ethoxypropan-2-yl)amino)-1H-pyrazolo[3,4-b]pyridin-4-yl)oxy)-3-fluorophenyl)-1-(4-fluorophenyl)-5-methyl-2-oxo-1,2-dihydropyridine-3-carboxamide]: 133 nM.
